From patent US10000577B2, “Treatment of otitis media” (Research Institute at Nationwide Children's Hospital, priority 2015, dated 2018)
Entries after “also recorded” stand apart in the source; their conditions may differ.

Test system: NHBE cells
Assay: Inhibition of Arp2/3 - normal human bronchial epithelial cell (NHBE) infection model with GFP-expressing NTHI
Assay type: cell-based
Conditions: 200 μM CK-636, 24 or 48 hours
Experimental: Inhibition of Arp2/3—Normal human bronchial epithelial cell (NHBE) infection model: NHBE cells (Lonza, Walkersville, Md.) were seeded into 24-well plates containing sterile coverslips and grown in Bronchial Epithelial Cell Growth Medium (BEGM; Lonza, Walkersville, Md.) at 37° C. in a 5% CO2 atmosphere to near confluency. […] The next morning the colonies were re-suspended in brain heart infusion broth supplemented with 2 μg/ml heme and 2 μg/ml β-NAD (sBHI) and grown at 37° C. with shaking at 180 rpm until the cells were in mid-log phase (˜5 generations). Prior to infection, the BEGM was removed from the NHBE cells and replaced with BEGM that contained either 200 μM CK-636 (Sigma-Aldrich, St. Louis, Mo.), an inhibitor of Arp2/3 function, or 0.2% DMSO, the vehicle for CK-636. Strain 86-028NP(pGM1.1) was then added to the NHBE cells at a multiplicity of infection of 50 bacteria to one NHBE cell and incubated at 37° C. in a 5% CO2 atmosphere for one hour. The NHBE cells were then washed twice with DPBS before being placed back in BEGM that contained either 200 μM CK-636 or 0.2% DMSO. Cells were incubated at 37° C. in a 5% CO2 atmosphere for 24 or 48 hours. At each time point, cells were stained with WGA-Alexa Fluor 594, fixed in 4% paraformaldehyde (Electron Microscopy Sciences, Hatfield, Pa.) in DPBS, permeabilized with 0.1% Triton X-100 then stained with phalloidin-Alexa Fluor 350. […]

Cc1[nH]c2ccccc2c1CCNC(=O)c1cccs1 [CK-636]
NTHI invasion / bacterial uptake into epithelial cells (fluorescent microscopy) (NTHI strain 86-028NP(pGM1.1), MOI 50, versus 0.2% DMSO vehicle): reduced NTHI invasion into epithelial cells; also recorded: increase in the number of extracellular bacteria indicating that bacterial uptake was reduced
actin structure of NHBE cells (phalloidin staining, fluorescent microscopy) (NTHI-infected NHBE cells): gross morphological changes in actin structure
